In the supplement of paper PMC10307832:

Experiments:
Assay in all cases: relative viability (nuclei count vs DMSO), 5 days (fraction); higher = more cells survive
BX 795 + Linsitinib = compound: O=C(NCCCNc1nc(Nc2cccc(NC(=O)N3CCCC3)c2)ncc1I)c1cccs1 [BX 795] + C[C@]1(O)C[C@@H](c2nc(-c3ccc4ccc(-c5ccccc5)nc4c3)c3c(N)nccn32)C1 [Linsitinib] (partner 1 µM)
Summary of the method: (§1)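 Nuclei were stained with Hoechst during a one-step fixation (final 0.05% Triton X-100, 1% formaldehyde, 1 ug/ml Hoechst) carried out 5 days after dosing, then counted on 4× images. The cells, lung cancer lines in 1536-well plates, had been dosed by pin tool the day after seeding with one drug alone or a fixed anchor-drug dose plus five library-drug doses (not always all listed) in √10 steps. Relative viability is the nuclei count in treated wells divided by that in vehicle wells, and each value is the median of duplicate plates.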

BX 795 + Bortezomib = compound: O=C(NCCCNc1nc(Nc2cccc(NC(=O)N3CCCC3)c2)ncc1I)c1cccs1 [BX 795] + CC(C)C[C@H](NC(=O)[C@H](Cc1ccccc1)NC(=O)c1cnccn1)B(O)O [Bortezomib] (partner 0.002 µM)
Summary of the method: as §1

BX 795 + Foretinib = compound: O=C(NCCCNc1nc(Nc2cccc(NC(=O)N3CCCC3)c2)ncc1I)c1cccs1 [BX 795] + COc1cc2c(Oc3ccc(NC(=O)C4(C(=O)Nc5ccc(F)cc5)CC4)cc3F)ccnc2cc1OCCCN1CCOCC1 [Foretinib] (partner 0.25 µM)
Summary of the method: as §1

BX 795 + Olaparib = compound: O=C(NCCCNc1nc(Nc2cccc(NC(=O)N3CCCC3)c2)ncc1I)c1cccs1 [BX 795] + O=C(c1cc(Cc2n[nH]c(=O)c3ccccc23)ccc1F)N1CCN(C(=O)C2CC2)CC1 [Olaparib] (partner 8 µM)
Summary of the method: as §1

BX 795 + Crizotinib = compound: O=C(NCCCNc1nc(Nc2cccc(NC(=O)N3CCCC3)c2)ncc1I)c1cccs1 [BX 795] + C[C@@H](Oc1cc(-c2cnn(C3CCNCC3)c2)cnc1N)c1c(Cl)ccc(F)c1Cl [Crizotinib] (partner 1 µM)
Summary of the method: as §1

BX 795 + Pictilisib = compound: O=C(NCCCNc1nc(Nc2cccc(NC(=O)N3CCCC3)c2)ncc1I)c1cccs1 [BX 795] + CS(=O)(=O)N1CCN(Cc2cc3nc(-c4cccc5[nH]ncc45)nc(N4CCOCC4)c3s2)CC1 [Pictilisib] (partner 1 µM)
Summary of the method: as §1

BX 795 + Lapatinib = compound: O=C(NCCCNc1nc(Nc2cccc(NC(=O)N3CCCC3)c2)ncc1I)c1cccs1 [BX 795] + CS(=O)(=O)CCNCc1ccc(-c2ccc3ncnc(Nc4ccc(OCc5cccc(F)c5)c(Cl)c4)c3c2)o1 [Lapatinib] (partner 2 µM)
Summary of the method: as §1

BX 795 + Alpelisib = compound: O=C(NCCCNc1nc(Nc2cccc(NC(=O)N3CCCC3)c2)ncc1I)c1cccs1 [BX 795] + Cc1nc(NC(=O)N2CCC[C@H]2C(N)=O)sc1-c1ccnc(C(C)(C)C(F)(F)F)c1 [Alpelisib] (partner 2 µM)
Summary of the method: as §1

BX 795 + Navitoclax = compound: O=C(NCCCNc1nc(Nc2cccc(NC(=O)N3CCCC3)c2)ncc1I)c1cccs1 [BX 795] + CC1(C)CCC(c2ccc(Cl)cc2)=C(CN2CCN(c3ccc(C(=O)NS(=O)(=O)c4ccc(N[C@H](CCN5CCOCC5)CSc5ccccc5)c(S(=O)(=O)C(F)(F)F)c4)cc3)CC2)C1 [Navitoclax] (partner 0.5 µM)
Summary of the method: as §1

BX 795 = compound: O=C(NCCCNc1nc(Nc2cccc(NC(=O)N3CCCC3)c2)ncc1I)c1cccs1 [BX 795]
Summary of the method: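 Viability was read as treated-well nuclei divided by vehicle-well nuclei, using the median across plates. Lung cancer cell lines in 1536-well plates were kept overnight at 37 °C, pinned with five √10-spaced library-drug doses, and after 5 days were Hoechst-stained, imaged at 4× and counted in MetaXpress. Plates passed only with control CV below 25% and at least one doubling.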

Cell Line: NCI-H1299
- relative viability (BX 795 + Linsitinib; first compound 0.04 µM): 0.983
- relative viability (BX 795 + Linsitinib; first compound 0.1265 µM): 0.968
- relative viability (BX 795 + Linsitinib; first compound 0.4 µM): 0.987
- relative viability (BX 795 + Linsitinib; first compound 1.265 µM): 0.767
- relative viability (BX 795 + Bortezomib; first compound 0.04 µM): 1.08
- relative viability (BX 795 + Bortezomib; first compound 0.1265 µM): 1.01
- relative viability (BX 795 + Bortezomib; first compound 0.4 µM): 1.06
- relative viability (BX 795 + Bortezomib; first compound 1.265 µM): 0.938
- relative viability (BX 795 + Foretinib; first compound 0.04 µM): 1.13
- relative viability (BX 795 + Foretinib; first compound 0.1265 µM): 1.09
- relative viability (BX 795 + Foretinib; first compound 0.4 µM): 1.16
- relative viability (BX 795 + Foretinib; first compound 1.265 µM): 0.876
- relative viability (BX 795 + Olaparib; first compound 0.04 µM): 1.02
- relative viability (BX 795 + Olaparib; first compound 0.1265 µM): 0.985
- relative viability (BX 795 + Olaparib; first compound 0.4 µM): 0.918
- relative viability (BX 795 + Olaparib; first compound 1.265 µM): 0.637
- relative viability (BX 795 + Crizotinib; first compound 0.04 µM): 1
- relative viability (BX 795 + Crizotinib; first compound 0.1265 µM): 0.933
- relative viability (BX 795 + Crizotinib; first compound 0.4 µM): 1.01
- relative viability (BX 795 + Crizotinib; first compound 1.265 µM): 0.674
- relative viability (BX 795 + Pictilisib; first compound 0.04 µM): 0.759
- relative viability (BX 795 + Pictilisib; first compound 0.1265 µM): 0.747
- relative viability (BX 795 + Pictilisib; first compound 0.4 µM): 0.751
- relative viability (BX 795 + Pictilisib; first compound 1.265 µM): 0.399
- relative viability (BX 795 + Lapatinib; first compound 0.04 µM): 0.885
- relative viability (BX 795 + Lapatinib; first compound 0.1265 µM): 0.977
- relative viability (BX 795 + Lapatinib; first compound 0.4 µM): 1.02
- relative viability (BX 795 + Lapatinib; first compound 1.265 µM): 0.798
- relative viability (BX 795 + Alpelisib; first compound 0.04 µM): 1.05
- relative viability (BX 795 + Alpelisib; first compound 0.1265 µM): 1.09
- relative viability (BX 795 + Alpelisib; first compound 0.4 µM): 1.07
- relative viability (BX 795 + Alpelisib; first compound 1.265 µM): 1
- relative viability (BX 795 + Navitoclax; first compound 0.04 µM): 1.05
- relative viability (BX 795 + Navitoclax; first compound 0.1265 µM): 0.996
- relative viability (BX 795 + Navitoclax; first compound 0.4 µM): 1.06
- relative viability (BX 795 + Navitoclax; first compound 1.265 µM): 0.926
- relative viability (BX 795; 0.04 µM): 0.972
- relative viability (BX 795; 0.1265 µM): 1.03
- relative viability (BX 795; 0.4 µM): 1.05
- relative viability (BX 795; 1.265 µM): 0.883
